Source: patent US5721238A, “2,8-disubstituted quinazolinones” (Bayer Aktiengesellschaft, priority 1995, dated 1998)

How the values were obtained:
Format in all cases: biochemical
PDE II = assay: Inhibition of the phosphodiesterases in vitro: PDE II (cGMP-stimulatable); settings: cGMP-stimulatable PDE II from porcine or bovine myocardia; 3HcAMP substrate 10^-6 mol/l, 10^-6 mol/l non-labelled cGMP; pH 7.5; 30 minutes
Protocol: (§1) The cGMP-stimulatable PDE II, the cGMP-inhibitable PDE III and the cAMP-specific PDE IV were isolated from either porcine or bovine myocardia. The Ca-calmodulin-stimulatable PDE I was isolated from the porcine aorta or porcine brain. The cGMP-specific PDE V was obtained from the porcine intestine, porcine aorta and/or human blood platelets. Purification was carried out by anion exchange chromatography on MonoQ^R Pharmacia, essentially by the method of M. Hoey and Miles D. Houslay, Biochemical Pharmacology, Volume 40, 193-202 (1990).
(§2) The enzyme activity is determined in a test batch of 100 μl in 20 mM Tris/HCl buffer of pH 7.5 which contains 5 mM MgCl2, 0.1 mg/ml of bovine serum albumin and either 800 Bq of ^3 HcAMP or ^3 HcGMP. The final concentration of the corresponding nucleotide is 10^-6 mol/l. The reaction is started by addition of the enzyme and the amount of enzyme is chosen such that about 50% of the substrate is converted during the incubation time of 30 minutes. To test the cGMP-stimulatable PDE II, ^3 HcAMP is used as the substrate and 10^-6 mol/l of non-labelled cGMP is added to the batch. To test the Ca-calmodulin-dependent PDE I, 1 μM CaCl2 and 0.1 μM calmodulin are also added to the reaction batch. The reaction is stopped by addition of 100 μl of acetonitrile which contains 1 mM cAMP and 1 mM AMP. 100 μl of the reaction batch are separated on the HPLC and the cleavage products are determined quantitatively "online" using a flow-through scintillation counter. The substance concentration at which the rate of reaction is reduced by 50% is measured.

PDE V = assay: Inhibition of the phosphodiesterases in vitro: PDE V (cGMP-specific); settings: cGMP-specific PDE V from porcine intestine, porcine aorta and/or human blood platelets; nucleotide 10^-6 mol/l; pH 7.5; 30 minutes
Protocol: as §1, §2

PDE I = assay: Inhibition of the phosphodiesterases in vitro: PDE I (Ca-calmodulin-stimulatable); settings: Ca-calmodulin-stimulatable PDE I from porcine aorta or porcine brain; nucleotide 10^-6 mol/l; 1 μM CaCl2, 0.1 μM calmodulin; pH 7.5; 30 minutes
Protocol: as §1, §2

Structure (SMILES)	IC50 (PDE II)	IC50 (PDE V)	IC50 (PDE I)
CCCOc1ccccc1-c1nc2c(C(OC)C(O)CCc3ccccc3)cccc2c(=O)[nH]1 (stereo not drawn) [Example 16, 2-(2-n-Propoxyphenyl)-8-(4-phenyl-1-methoxy-2-hydroxy-1-butyl)-quinazolin-4(3H)-one]	5 µM	5 µM	
CCCOc1ccccc1-c1nc2c(C(OC)C(O)Cc3ccccc3)cccc2c(=O)[nH]1 (stereo not drawn) [Example 15, 2-(2-n-Propoxyphenyl)-8-(3-phenyl-1-methoxy-2-hydroxy-1-propyl)-quinazolin-4(3H)-one]	5 µM		3 µM
CCCOc1ccc(S(=O)(=O)N2CCOCC2)cc1-c1nc2c(C(C)CCCc3ccccc3)cccc2c(=O)[nH]1 (stereo not drawn) [Example 29, 2-(2-n-Propoxy-5-morpholinosulphonylphenyl)-8-(5-phenyl-2-pentyl)-quinazolin-4-(3H)-one]	0.5 µM	1 µM	

More lines, now with the values ahead:

IC50 (PDE II)	IC50 (PDE V)	IC50 (PDE I)	Structure (SMILES)
2 µM	5 µM	10 µM	CCCCCC(O)C(CC)c1cccc2c(=O)[nH]c(-c3ccccc3OCCC)nc12 (stereo not drawn) [Example 20, 2-(2-n-Propoxyphenyl)-8-(4-hydroxy-3-nonyl)-quinazolin-4(3H)-one]
5 µM	3 µM	5 µM	CCCCCC(O)C(OC)c1cccc2c(=O)[nH]c(-c3ccccc3OCCC)nc12 (stereo not drawn) [Example 14, 2-(2-n-Propoxyphenyl)-8-(1-methoxy-2-hydroxy-1-heptyl)-quinazolin-4(3H)-one]
